From patent US6071884A, “Pharmaceutical compositions and therapeutic methods” (Kirin Beer Kabushiki Kaisha, priority 1992, dated 2000) come the findings set out here.

Data set [1] has as its system mononuclear cell fraction of human umbilical cord blood. Description: Proliferation-stimulating effect on mononuclear cell fraction of human umbilical cord blood (3H-TdR uptake). It is filed as cell-based. Particulars: 96 h, percentage of control, 4 days. The essentials: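 Umbilical cord blood MNF (Lymphoprep) cultured at 1×10^6 cells/ml in RPMI 1640 with 10% autologous plasma with sample for 4 days at 37° C, 5% CO2. 0.5 μCi/well 3H-TdR then added for 8 h, and nuclear uptake measured by liquid scintillation counting.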

Data set [2] can be described thus: Observation of body weight and general condition in monkey. The format is in vivo, croo monkey. Particulars: 1 mg/body i.v.; until 10 days after administration.
Data set [3] in a line: Life-span-increasing effect on irradiation of a lethal dose of radiation. The format is in vivo, mouse (BDF1). The settings on record: 10 mice/group, 9 Gy X-ray, 0.1 mg/kg i.v. days 0, 4, 8. The method, then:
Pharmacological Test 4: Life-Span-Increasing Effect on Irradiation of a Lethal Dose of Radiation
An experiment was carried out by using 6 week old female BDF1 mice purchased from Japan SLC Co., Ltd., with 10 mice made one group.
The entire bodies of the entire body of the mice were irradiated with 9 Gy of X-rays by using a Hitachi X-ray irradiator (MBR-1520R), and the day on which the X-ray was irradiated was referred to as "day 0".

Data set [4] has as its system blood platelets. Nature of the data set: Blood-platelet-increasing effect upon monkey. It is filed as in vivo, croo monkey. Particulars: for Number of Blood Platelets: mean ± SD. The method, then:
Subsequently, in order to examine the effect on Primates, the effect of Compound 33 was examined as a representative of the compounds represented by the formula (A), by using normal croo monkeys.
Pharmacological Test 7: Blood-Platelet-Increasing Effect upon Monkey
Six croo monkeys (female, 3 to 5 years old, 2.3 to 2.8 kg), 2 monkeys in one group were used. A vehicle, 0.1 mg/body of the compound 33 or 1 mg/body of the compound 33 was intravenously administered to the monkeys. 6 and 9 days after the administration, blood was collected by using a blood-collecting tube EDTA-2K, and the numbers of blood platelets, white blood cells and red blood cells contained in the peripheral blood were measured by using an E-2500/cs. The results are shown in Tables 7-1, 7-2 and 7-3, respectively.

Take `CCCCCCCCCCCCCCCCCCCCCCCCCC(=O)N[C@@H](CO[C@H]1O[C@H](CO)[C@H](O)[C@H](O)[C@H]1O)[C@H](O)[C@H](O)CCCCCCCCCCCCCC` [Compound 33, (2S,3S,4R)-1-(α-D-galactopyranosyloxy)-2-hexacosanoylamino-3,4-octadecanediol]: in data set [1] (10^-1 μg/ml), the activity at 0.1 µg/mL stood at 409%. For the same compound, the activity at 0.01 µg/mL in data set [1] (10^-2 μg/ml) is 256%. Further, in data set [1] (10^-3 μg/ml), the activity at 0.001 µg/mL was 228%. Besides, the “abnormality in body weight and in general condition” value in data set [2] was “no abnormality in body weight and in general condition was found”. Also, the “Number of Surviving Mice” value in data set [3] (day 10, controls per series 10, 10, 10, 10, 10, 8) was 10 mice; in data set [3] (day 15, controls per series 8, 9, 5, 5, 7, 1) it was 8 mice; in data set [3] (day 20, controls per series 4, 5, 1, 2, 3, 0) it was 7 mice; in data set [3] (day 25, controls per series 3, 3, 0, 0, 2, 0) it was 5 mice; in data set [3] (day 30, controls per series 1, 1, 0, 0, 0, 0) it was 5 mice; in data set [3] (day 35, all controls 0), 5 mice. Further, the “Number of Surviving Mice” value in data set [3] (day 40, all controls 0) was determined as 5 mice. The “Number of Blood Platelets” value in data set [4] (0.1 mg/body i.v., after 6 days, vehicle 37.8 ± 8.5) is listed as 56.4 ± 5.2 × 10^4 /μl; in data set [4] (0.1 mg/body i.v., after 9 days, vehicle 37.4 ± 12.4) it was 52.4 ± 9.0 × 10^4 /μl; in data set [4] (1 mg/body i.v., after 6 days, vehicle 37.8 ± 8.5), 62.1 ± 15.9 × 10^4 /μl; in data set [4] (1 mg/body i.v., after 9 days, vehicle 37.4 ± 12.4), 64.7 ± 23.7 × 10^4 /μl. Besides, the “blood-platelet-increasing effect (in words)” value in data set [4] (0.1 mg/body, almost equal to 1 mg/body) is on record as “remarkable blood-platelet-increasing effect”.
